# pIC50, pKi: −log10 of the molar value. Like-named read-outs stand apart in the source and are kept apart here. *1 amine or outer side, *2 acyl side, *3 side chain or, on linkers, in order; H or OH if unused. Where a SMILES comes first, the peptide text is derived from it. [ ]: non-standard residue; d: D form. The star is where a group is joined. Oic = O=C(O)[C@@H]1C[C@@H]2CCCC[C@@H]2N1; X2 = CCC[C@H](N[*:1])C(=O)C(=O)[*:2]; Isopropoxycarbonyl = CC(C)OC(=O)*; Pyrazinecarbonyl = O=C(c1cnccn1)*; X1 = CCCC(N[*:1])C(=O)C(=O)[*:2]; Chg = N[C@H](C(=O)O)C1CCCCC1; Tle = CC(C)(C)[C@H](N)C(=O)O; NHcPr = C1CC1N*
# Experiments:
# [1] = tested on: Cells containing hepatitis C virus (HCV) replicon; experiment: HCV replicon cell assay (Taqman RT-PCR of HCV RNA); type: cell-based; settings: 50% inhibition of HCV RNA level, 48-hour incubation, HCV replicon cells, read-out: IC50
# Procedure: HCV Replicon Cell Assay Protocol
# Cells containing hepatitis C virus (HCV) replicon were maintained in DMEM containing 10% fetal bovine serum (FBS), 0.25 mg per ml of G418, with appropriate supplements (media A).
# On day 1, replicon cell monolayer was treated with a trypsin:EDTA mixture, removed, and then media A was diluted into a final concentration of 100,000 cells per ml wit. 10,000 cells in 100 ul were plated into each well of a 96-well tissue culture plate, and cultured overnight in a tissue culture incubator at 37° C.
# On day 2, compounds (in 100% DMSO) were serially diluted into DMEM containing 2% FBS, 0.5% DMSO, with appropriate supplements (media B). The final concentration of DMSO was maintained at 0.5% throughout the dilution series.
# Media on the replicon cell monolayer was removed, and then media B containing various concentrations of compounds was added. Media B without any compound was added to other wells as no compound controls.
# Cells were incubated with compound or 0.5% DMSO in media B for 48 hours in a tissue culture incubator at 37° C. At the end of the 48-hour incubation, the media was removed, and the replicon cell monolayer was washed once with PBS and stored at −80° C. prior to RNA extraction.
# Culture plates with treated replicon cell monolayers were thawed, and a fixed amount of another RNA virus, such as Bovine Viral Diarrhea Virus (BVDV) was added to cells in each well. RNA extraction reagents (such as reagents from RNeasy kits) were added to the cells immediately to avoid degradation of RNA. Total RNA was extracted according the instruction of manufacturer with modification to improve extraction efficiency and consistency. Finally, total cellular RNA, including HCV replicon RNA, was eluted and stored at −80° C. until further processing.
# A Taqman real-time RT-PCR quantification assay was set up with two sets of specific primers and probe. One was for HCV and the other was for BVDV. Total RNA extractants from treated HCV replicon cells was added to the PCR reactions for quantification of both HCV and BVDV RNA in the same PCR well. Experimental failure was flagged and rejected based on the level of BVDV RNA in each well. The level of HCV RNA in each well was calculated according to a standard curve run in the same PCR plate. The percentage of inhibition or decrease of HCV RNA level due to compound treatment was calculated using the DMSO or no compound control as 0% of inhibition. The IC50 (concentration at which 50% inhibition of HCV RNA level is observed) was calculated from the titration curve of any given compound.
# [2] = molecular target: HCV NS3-NS4A protease (tNS3 with KK4A) (Hepatitis C virus genotype 1a, UniProt P27958); experiment: HCV Ki assay (HPLC microbore separation of 5AB substrate and products); type: biochemical
# Procedure: HPLC Microbore Method for Separation of 5AB Substrate and Products
# • Substrate: • NH2-Glu-Asp-Val-Val-(alpha)Abu-Cys-Ser-Met-Ser-Tyr-COOH
# A stock solution of 20 mM 5AB (or concentration of your choice) was made in DMSO w/ 0.2M DTT. This was stored in aliquots at −20 C.
# Buffer: 50 mM HEPES, pH 7.8; 20% glycerol; 100 mM NaCl
# Total assay volume was 100 μL
# The buffer, KK4A, DTT, and tNS3 were combined; distributed 78 μL each into wells of 96 well plate. This was incubated at 30 C for ˜5–10 min.
# 2.5 μL of appropriate concentration of test compound was dissolved in DMSO (DMSO only for control) and added to each well. This was incubated at room temperature for 15 min.
# Initiated reaction by addition of 20 μL of 250 μM 5AB substrate (25 μM concentration is equivalent or slightly lower than the Km for 5AB).
# Incubated for 20 min at 30 C.
# Terminated reaction by addition of 25 μL of 10% TFA
# Transferred 120 μL aliquots to HPLC vials
# Separated SMSY product from substrate and KK4A by the following method:
# Microbore Separation Method:
# Instrumentation: Agilent 1100
# • Degasser G1322A • Binary pump G1312A • Autosampler G1313A • Column thermostated chamber G1316A • Diode array detector G1315A Column:
# Phenomenex Jupiter; 5 micron C18; 300 angstroms; 150×2 mm; P/O 00F-4053-B0 • Column thermostat: 40 C • Injection volume: 100 μL • Solvent A=HPLC grade water+0.1% TFA • Solvent B=HPLC grade acetonitrile+0.1% TFA
# • Stop time: 17 min • Post-run time: 10 min.
# HCV NS3-NS4A protease (tNS3 with KK4A), sequence (P27958 1027-1208): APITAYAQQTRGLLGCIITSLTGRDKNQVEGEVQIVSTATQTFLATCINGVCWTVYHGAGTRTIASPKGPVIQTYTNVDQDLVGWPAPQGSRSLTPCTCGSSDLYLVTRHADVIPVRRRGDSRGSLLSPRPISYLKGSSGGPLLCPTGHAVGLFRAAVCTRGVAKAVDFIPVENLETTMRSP
SMILES,pIC50 [1],pKi [2],"pKi ([2]; 25 nM tNS3, 25 μM KK4A, 25 μM 5AB substrate, 20 min at 30 C, read-out: Ki)"
CCC[C@H](NC(=O)[C@@H]1C[C@@H]2CCCC[C@@H]2N1C(=O)[C@@H](NC(=O)[C@@H](NC(=O)c1cc(C)c(C(C)=O)[nH]1)C1CCCCC1)C(C)(C)C)C(=O)C(=O)NC1CC1 [Compound 37a],> 6.30,> 6.30,
CCC[C@H](NC(=O)[C@@H]1C[C@@H]2CCCC[C@@H]2N1C(=O)[C@@H](NC(=O)[C@@H](NC(=O)c1[nH]c(C)c(C(C)=O)c1-c1ccccc1)C1CCCCC1)C(C)(C)C)C(=O)C(=O)NC1CC1 [Compound 53a],> 6.30,> 6.30,
CCC[C@H](NC(=O)[C@@H]1C[C@@H]2CCCC[C@@H]2N1C(=O)[C@@H](NC(=O)[C@@H](NC(=O)[C@](C)(O)c1ccccc1)C1CCCCC1)C(C)(C)C)C(=O)C(=O)NC1CC1 [Compound 20a],6.00 to 6.30,> 6.30,
CCC[C@H](NC(=O)[C@@H]1C[C@@H]2CCCC[C@@H]2N1C(=O)[C@@H](NC(=O)[C@@H](NC(=O)c1cc(C(=O)CC)c[nH]1)C1CCCCC1)C(C)(C)C)C(=O)C(=O)NC1CC1 [Compound 44a],> 6.30,> 6.30,
CCC[C@H](NC(=O)[C@@H]1[C@H]2CCC[C@H]2CN1C(=O)[C@@H](NC(=O)[C@@H](NC(=O)c1[nH]c(C)c(C)c1C(C)=O)C1CCCCC1)C(C)(C)C)C(=O)C(=O)NC1CC1 [Compound 68],> 6.30,> 6.30,
CC(=O)c1c(C(=O)N[C@H](C(=O)N[C@H](C(=O)N2[C@H](C(=O)NC(CCC(F)(F)F)C(=O)C(=O)NC3CC3)C[C@@H]3CCCC[C@@H]32)C(C)(C)C)C2CCCCC2)[nH]c(C)c1C (stereo partly shown) [Compound 45a],> 6.30,> 6.30,
CCC[C@H](NC(=O)[C@@H]1C[C@@H]2CCCC[C@@H]2N1C(=O)[C@@H](NC(=O)[C@@H](NC(=O)c1cnccn1)C1CCCCC1)C(C)(C)C)C(=O)C(=O)N(C)C [Compound 50a],,5.30 to 6.00,
CCC[C@H](NC(=O)[C@@H]1C[C@@H]2CCCC[C@@H]2N1C(=O)[C@@H](NC(=O)[C@@H](NC(=O)c1[nH]c(C)c(C)c1C(C)=O)C(C)C)C(C)(C)C)C(=O)C(=O)NC1CC1 [Compound 58a],,> 6.30,
CCC[C@H](NC(=O)[C@@H]1C[C@@H]2CCCC[C@@H]2N1C(=O)[C@@H](NC(=O)[C@H](C1CCCCC1)N1C(=O)c2ccccc2C1=O)C(C)(C)C)C(=O)C(=O)NC1CC1 [Compound 57a],,> 6.30,
CCC[C@H](NC(=O)[C@@H]1C[C@@H]2CCCC[C@@H]2N1C(=O)[C@@H](NC(=O)[C@@H](NC(=O)c1cccnc1)C1CCCCC1)C(C)(C)C)C(=O)C(=O)NC1CC1 [Compound 31a],5.30 to 6.00,> 6.30,
CCC[C@H](NC(=O)[C@@H]1C[C@@H]2CCCC[C@@H]2N1C(=O)[C@@H](NC(=O)[C@@H](NC(=O)c1cnccn1)C1CCCCC1)C(C)(C)C)C(=O)C(=O)N[C@@H]1CCOC1 [Compound 47a],5.30 to 6.00,6.00 to 6.30,
CCC[C@H](NC(=O)[C@@H]1C[C@@H]2CCCC[C@@H]2N1C(=O)[C@@H](NC(=O)[C@@H](NC(=O)c1ccc[nH]1)C1CCCCC1)C(C)(C)C)C(=O)C(=O)NC1CC1 [Compound 11a],> 6.30,> 6.30,
CCC[C@@H](NC(=O)[C@@H]1C[C@@H]2CCCC[C@@H]2N1C(=O)[C@@H](NC(=O)[C@@H](NC(=O)c1cnccn1)C1CCCCC1)C(C)(C)C)C(=O)C(=O)NC1CC1 [Compound 60a],5.30 to 6.00,5.30 to 6.00,
CCC[C@H](NC(=O)[C@@H]1C[C@@H]2CCCC[C@@H]2N1C(=O)[C@@H](NC(=O)[C@@H](NC(=O)c1cnccn1)C1CCCCC1)C(C)(C)C)C(=O)C(=O)NCC(=O)N(C)C [Compound 54a] (Pyrazinecarbonyl-[Chg][Tle][Oic][X2]G-NMe2),,5.30 to 6.00,
CCC[C@H](NC(=O)[C@@H]1C[C@@H]2CCCC[C@@H]2N1C(=O)[C@@H](NC(=O)[C@@H](NC(=O)c1cc([N+](=O)[O-])c[nH]1)C1CCCCC1)C(C)(C)C)C(=O)C(=O)NC1CC1 [Compound 12a],> 6.30,> 6.30,
CCC[C@H](NC(=O)[C@@H]1C[C@@H](Oc2ncc(Cl)cn2)CN1C(=O)[C@@H](NC(=O)[C@@H](NC(=O)c1[nH]c(C)c(C)c1C(C)=O)C1CCCCC1)C(C)(C)C)C(=O)C(=O)NC1CC1 [Compound 67],> 6.30,> 6.30,
CCC[C@H](NC(=O)[C@@H]1C[C@@H]2CCCC[C@@H]2N1C(=O)[C@@H](NC(=O)[C@@H](NC(=O)c1nccnc1C(N)=O)C1CCCCC1)C(C)(C)C)C(=O)C(=O)NC1CC1 [Compound 28a],,> 6.30,
CCCC(NC(=O)[C@@H]1C[C@@H]2CCCC[C@@H]2N1C(=O)[C@@H](NC(=O)[C@@H](NC(=O)c1cnccn1)C1CCCCC1)C(C)(C)C)B1O[C@@H]2C[C@@H]3C[C@@H](C3(C)C)[C@]2(C)O1 (stereo partly shown) [Compound 56a],,,> 6.30
CCCC(NC(=O)[C@@H]1C[C@@H]2CCCC[C@@H]2N1C(=O)[C@@H](NC(=O)[C@@H](NC(=O)[C@H](C)NC(=O)OC(C)C)C1CCCCC1)C(C)(C)C)C(=O)C(=O)NC1CC1 (stereo partly shown) [Compound 6a] (Isopropoxycarbonyl-A[Chg][Tle][Oic][X1]-NHcPr),,> 6.30,
CCC[C@H](NC(=O)[C@@H]1C[C@@H]2CCCC[C@@H]2N1C(=O)[C@@H](NC(=O)[C@@H](NC(=O)c1ccnn1C)C1CCCCC1)C(C)(C)C)C(=O)C(=O)NC1CC1 [Compound 17a],,5.30 to 6.00,
CCCC(NC(=O)[C@@H]1C[C@@H]2CCCC[C@@H]2N1C(=O)[C@@H](NC(=O)[C@@H](NC(=O)c1cnccn1)C(C)C)C(C)C)C(=O)C(=O)N[C@@H](Cc1ccccc1)C(=O)O (stereo partly shown) [Compound 1a] (Pyrazinecarbonyl-VV[Oic][X1]F-OH),,> 6.30,
CCC[C@H](NC(=O)[C@@H]1C[C@@H]2CCCC[C@@H]2N1C(=O)[C@@H](NC(=O)[C@@H](NC(=O)c1[nH]c(C)c(C)c1C(C)=O)C(C)CC)C(C)(C)C)C(=O)C(=O)NC1CC1 (stereo partly shown) [Compound 59a],,> 6.30,
CCCC(NC(=O)[C@@H]1C[C@@H]2CCCC[C@@H]2N1C(=O)[C@@H](NC(=O)[C@@H](NC(=O)c1cnccn1)C(C)C)C(C)C)C(=O)C(=O)NC1CC1 (stereo partly shown) [Compound 2a],,6.00 to 6.30,
CCCC(NC(=O)[C@@H]1C[C@@H]2CCCC[C@@H]2N1C(=O)[C@@H](NC(=O)[C@@H](NC(=O)[C@H](C)NC(=O)OC(C)C)C1CCCCC1)C(C)C)C(=O)C(=O)NC1CC1 (stereo partly shown) [Compound 5a] (Isopropoxycarbonyl-A[Chg]V[Oic][X1]-NHcPr),,> 6.30,
CCCC(NC(=O)[C@@H]1C[C@@H]2CCCC[C@@H]2N1C(=O)[C@@H](NC(=O)[C@@H](NC(=O)c1cnccn1)C1CCCCC1)C(C)(C)C)C(=O)C(=O)N[C@@H](C)c1ccccc1 (stereo partly shown) [Compound 7a],,> 6.30,
CCCC(NC(=O)[C@@H]1C[C@@H]2CCCC[C@@H]2N1C(=O)[C@@H](NC(=O)[C@@H](NC(=O)C1CSC(=O)N1)C1CCCCC1)C(C)(C)C)C(=O)C(=O)N[C@@H](C)c1ccccc1 (stereo partly shown) [Compound 8a],,> 6.30,
CCC[C@H](NC(=O)[C@@H]1C[C@@H]2CCCC[C@@H]2N1C(=O)[C@@H](NC(=O)[C@@H](NC(=O)c1[nH]ncc1Cl)C1CCCCC1)C(C)(C)C)C(=O)C(=O)NC1CC1 [Compound 38a],,6.00 to 6.30,
CCC[C@H](NC(=O)[C@@H]1C[C@@H]2CCCC[C@@H]2N1C(=O)[C@@H](NC(=O)[C@@H](NC(=O)c1[nH]c(C)c(C)c1C(C)=O)C1CCCCC1)C(C)(C)C)C(=O)C(=O)C(C)C [Compound 62a],,6.00 to 6.30,

# Reference: patent US7273885B2, “Inhibitors of serine proteases, particularly HCV NS3-NS4A protease” (Vertex Pharmaceuticals Incorporated, priority 2002, dated 2007)
